Test results as given in BigSolDB 2.1.

CN[C@@H]1[C@H](O)[C@H](NC)[C@H]2O[C@@]3(O)C(=O)C[C@@H](C)O[C@H]3O[C@@H]2[C@H]1O.Cl.Cl.O.O.O.O.O
solubility (mole fraction)
Conditions	278.15 K	283.15 K	288.15 K	293.15 K	298.15 K	303.15 K	308.15 K	313.15 K	318.15 K
in ethanol	0.00342	0.00412	0.00443	0.00484	0.00545	0.00629	0.00664	0.00738	0.00807
in isopropanol	0.00031	0.0004	0.00051	0.00066	0.00074	0.00086	0.00101	0.00114	0.00131
in methanol	0.00988	0.0138	0.0185	0.0226	0.032	0.0385	0.0439	0.0531	0.0629
in n-propanol	0.00098	0.00125	0.00157	0.00219	0.0027	0.00336	0.00373	0.00447	0.00531
